Test results reported in the NIST ThermoML archive (doi:10.1021/je049777o).
Values joined by “and” are separate entries in the source; they are usually repeats but may differ in a detail not shown here. Equal entries are not always repeated.

Legend:
[1] = 101.3 kPa, Liquid
[2] = xn = mol fraction of the nth substance listed; settings: 101.3 kPa, Liquid

Clc1ccccc1 [chlorobenzene]
[1]
Settings	mass density [kg/m3]	viscosity [mPa·s]
293.15 K	1106.74	0.8084
298.15 K	1101.33	0.7422
303.15 K	1095.96	0.7053
313.15 K	1085.06	0.631
323.15 K	1074.26	0.5677
333.15 K	1063.32	0.5069
343.15 K	1052.44	0.4658

COC(=O)OC [dimethyl carbonate]
[1]
Settings	mass density [kg/m3]	viscosity
293.15 K	1069.54	0.6163 mPa·s and 0.6173 mPa·s
298.15 K	1062.95	0.5771 mPa·s and 0.5734 mPa·s
303.15 K	1056.35	0.5433 mPa·s and 0.5403 mPa·s
313.15 K	1043.01	0.482 mPa·s and 0.4807 mPa·s
323.15 K	1029.59	0.4319 mPa·s and 0.427 mPa·s
333.15 K	1016	0.3893 mPa·s
343.15 K	1002.32	0.3527 mPa·s

COC(=O)OC [dimethyl carbonate] + Clc1ccccc1
[2], x1 = 1
Settings	mass density [kg/m3]	viscosity [mPa·s]
293.15 K	1069.54	0.6163
298.15 K	1062.95	0.5771
303.15 K	1056.35	0.5433
313.15 K	1043.01	0.482
323.15 K	1029.59	0.4319
333.15 K	1016	0.3893
343.15 K	1002.32	0.3527

CCCCCCC [heptane]
[1]
Settings	mass density [kg/m3]	viscosity [mPa·s]
293.15 K	687.14	0.4038
298.15 K	682.91	0.3831
303.15 K	678.61	0.3629
313.15 K	669.91	0.3274
323.15 K	661.16	0.298
333.15 K	652.26	0.2704
343.15 K	643.31	0.2487

CCCCCCC [heptane] + COC(=O)OC
[2], x2 = 0
Settings	mass density [kg/m3]	viscosity [mPa·s]
293.15 K	687.14	0.4038
298.15 K	682.91	0.3831
303.15 K	678.61	0.3629
313.15 K	669.91	0.3274
323.15 K	661.16	0.298
333.15 K	652.26	0.2704
343.15 K	643.31	0.2487

CCCCCC [hexane]
[1]
Settings	mass density [kg/m3]	viscosity [mPa·s]
293.15 K	662	0.302
298.15 K	657.44	0.2886
303.15 K	652.87	0.2774
313.15 K	643.55	0.2504
323.15 K	634.07	0.2339
333.15 K	624.39	0.2114

CCCCCC [hexane] + COC(=O)OC
[2], x2 = 0
Settings	mass density [kg/m3]	viscosity [mPa·s]
293.15 K	662	0.302
298.15 K	657.44	0.2886
303.15 K	652.87	0.2774
313.15 K	643.55	0.2504
323.15 K	634.07	0.2339
333.15 K	624.39	0.2114
